Laboratory results as given in US10213451B2, “Methods and compounds for modulating the secretion or expression of adhesion proteins or angiopoietins of cells” (PACIFIC ARROW LIMITED, priority 2004, dated 2019).
Converted amounts (≈) assume the structure as drawn.

Columns and labels:
[1] = test system: human red blood cells; assay: Hemolytic activity; format: cell-based; details: FIG. 3D
Description: (§1) Methods: • Human whole blood was obtained from the Houston Gulf Coast Blood Center. • Red blood cells were isolated by the following method: Human blood (in EDTA) was diluted 1:1 with PBS, underlay with 4 mL of Histopaque-1077 (SIGMA) and was centrifuged at 400 g for 30 min. • Red blood cells (RBC) were collected and washed three times with PBS. • 10% suspensions of RBC were prepared with PBS before use. • 50 μL of RBC suspension was added to 2 mL of saponins with different concentration. • The suspension was mixed by vortexing then left to sit at room temperature for 60 minutes. • The suspension was centrifuged at 3000 rpm for 5 min. Absorbance of the supernatant was measured at 540 nm.

[2] = test system: red blood cells (hemolysis); assay: Hemolytic activity; format: cell-based, human; details: human red blood cells (isolated from whole blood); human red blood cells, FIG. 5A
Description: as §1

[3] = test system: Hey 8A; assay: MTT assay Hey 8A; format: cell-based, human
Description: Majority of ovarian cancers arise from the surface epithelium of ovary, most of them belong to the histological subtypes of clear cell and serous carcinoma. We obtained 10 more human ovarian carcinoma cell-lines of these histological subtypes for these studies. The inhibition activity exerted by Xanifolia-Y was determined with MTT assay.
Cells: Hey8A (human ovarian carcinoma cells) were grew in RPMI 1640 medium to 90% confluent before drug-treatment. Drug-treatment: Cells cultures were replaced with fresh RPMI medium containing either DMSO (as control) [D1]; or Xanifolia-Y (10, 15, or 20 ug/ml) [Y1, Y2 and Y3]. Aliquot of medium was removed as 0 hours sample and no FN was detected at this time. After 24 hours, aliquot of culture medium was taken out for Fibronectin determination (Western blot method). Cell viability at 24 hours was determined by MTT assay. Cultures were replaced with RPMI medium (5 ml) with MTT and incubated for an hour. The formation of formazan was dissolved in DMSO and OD at 570 nm was measured.

[4] = test system: ES2 (human ovarian cancer) cells transplanted sc; assay: Animal study, size of sc ES2 tumor; format: in vivo, Athymic Nu/Nu mice
Description: • Athymic Nu/Nu mice (2-3 months old) were transplanted sc with ES2 (human ovarian cancer) cells. • Five days after the transplant (day one), mice were divided into two groups (H and J) with two animals in each group. • Group H: On days 1-5, and 8-10 mice received daily drug administration of Xanifolia-Y, by i.p. route at dose of 2.5 mg/kg. • Group J mice received no drug-treatment.

[5] = test system: Hey8A cells attached to flasks; assay: Inhibition of cell adhesion to flasks, Hey8A; format: cell-based, human; details: 5 ug/ml, 5 hours
Description: (§2) Methods and Results. ES2 or Hey8A cells were plated in T25 flasks with medium containing 5 ug/ml of Xanifolia-Y. Cultures were incubated for 5 hours. Attached cells were removed from flasks by trypsinization and the amounts were counted. Compare to no drug controls, 86±4% of ES2 cells and 67±8% of Hey8A cells were found attached to flasks under this condition. At 5 ug/ml Xanifolia-Y, over 90% of unattached cells are alive as determined by the trypan Blue exclusion assay and by their ability to re-attach to flasks when plating in medium without Xanifolia-Y. However, with 10 ug/ml Xanifolia-Y, less than 40% of cells attached to flasks and many of them are dead cells.
as §2, with “Results:” for “Results.”

[6] = test system: OVCAR3 cells; assay: Apoptosis by flow cytometry of GFP-Annexin-V and propidium iodide; format: cell-based, human; details: 24 h after exposure
Description: Experiment of apoptosis of OVCAR3 cells after treatment with Xanifolia-Y was assessed with flow cytometry of GFP-Annexin-V and propidium iodide.

[7] = test system: K562 cells membrane; assay: EM study of membrane structure; format: cell-based, human; details: 5 uM, 60 min
Source text: Xanifolia-Y has a potent hemolytic activity in red blood cells (FIG. 27). To study the effect of Xanifolia-Y on membrane structure, the morphology of cell membrane treated with Xanifolia-Y was examined with EM. […] Solvent DMSO and AKOH-Y (a derivative of Xanifolia-Y without the angeloyl group and it has no activity) served as controls. Cells were negative stained with 1% UAc and subsequently examined with EM.

[8] = test system: Hey8A cells inoculated into peritoneal cavity; assay: Nodule formation in peritoneal cavity, Hey8A; format: in vivo, nu/nu mice; details: 0.25 mg/kg i.p. daily 5 days per week for two-three weeks
Source text: The relationship between the nodule formation and timelines during tumor progression are established. Usually, 4 to 6 nodules are formed during the entire period of tumor progression in this system (Lander Jr., et al., 2005). We start the drug-treatment at times equivalent to 20% and 50% of full tumor progression. At these times, the number of nodule is less and the size (weight) of the nodules is smaller. At the end of the drug-treatment, animals are euthanized and number of tumor nodules is determined and the tumor size (mass) is weighted.
Animals: 40 nu/nu mice are used per experiment.
2 groups of mice (20 each) (i) Drug-treatment start at time equivalent to 20% of full tumor progression (or on 4 days after tumor inoculation) (ii) Drug-treatment starts at time equivalent to 50% of full tumor progression (or on 10 days after tumor inoculation). On the day of starting drug-treatment, half of the animals (10) will be scarified and the number and weight of nodules will measured.
Drug-Treatments: Animals are administered daily for 5 days per week for two—three weeks. Dose: 0.25 mg/kg, through i.p. route.

| SMILES | hemolytic activity of hydrolysed products of compound Y [1] | IC50 at 60 min [2] | state of cells after drug-treatment ([3]; Hey8A, 15 ug/ml and 20 ug/ml, 24 hours) | activity at 10 µg/mL ([3]; Homo sapiens, Hey8A, 10 ug/ml, 24 hours, read-out: growth of cells, % of control (MTT)) | IC50 ([3]; Homo sapiens, Hey 8A, Serous) | tumor size smaller than in mice with no drug ([4]; 10 days period) | tumor size ([4]; Group H: i.p. 2.5 mg/kg days 1-5 and 8-10, in 10 days) | cells attached to flasks, compared to no drug controls [5] | form of cell death induced [6] | membrane morphology (EM) [7] | numbers of tumor nodules [8] | size of tumor [8] |
| --- | --- | --- | --- | --- | --- | --- | --- | --- | --- | --- | --- | --- |
| C/C=C(/C)C(=O)O[C@H]1[C@H](OC(=O)/C(C)=C\C)[C@@]2(CO)C(CC1(C)C)C1=CCC3[C@@]4(C)CC[C@H](O)C(C)(C)C4CC[C@@]3(C)[C@]1(C)[C@@H](O)[C@H]2O (stereo partly drawn) [ACH-Y] | reduced hemolytic activity |  |  |  |  |  |  |  |  |  |  |  |
| C/C=C(/C)C(=O)O[C@H]1[C@H](OC(=O)/C(C)=C\C)[C@@]2(CO)C(CC1(C)C)C1=CCC3[C@@]4(C)CC[C@H](O[C@@H]5OC(C(=O)O)[C@@H](O)C(O[C@@H]6O[C@@H](CO)C(O)C6O)C5O[C@@H]5OC(CO)[C@H](O)C(O)C5O)C(C)(C)C4CC[C@@]3(C)[C@]1(C)[C@@H](O)[C@H]2O (stereo partly drawn) [Xanifolia-Y, 3-O-[β-D-galactopyranosyl (1→2)]-α-L-arabinofuranosy (1→3)-β-D-glucuronopyranosyl-21,22-O-diangeloyl-3β, 15α, 16α, 21β, 22α, 28-hexahydroxyolean-12-ene] |  | 1 µg/mL (≈ 0.876 µM) | found dead (floating) | 83% | 10.5 µM | 45% | 10 mm | 67±8% | apoptosis is a major form of cell death | patches of pits were found in the membrane | less | smaller |
